Consider 44 molecules from patent US20100137294A1, “COMPOUNDS, COMPOSITIONS AND METHODS FOR CONTROLLING INVERTEBRATE PESTS” (GENETIC TECHNOLOGIES LIMITED, priority 2006, published 2010).

The term melting point denotes the temperature of the solid-liquid transition.

Data set [1] has as its system T. vitrinus L3 larvae. The data set can be described thus: Testing of compounds on T. vitrinus L3 larvae (96-well microplate larval kill assay). It counts as cell-based, Trichostrongylus vitrinus. The protocol:
The ability of the compounds to kill T. vitrinus L3 larvae was tested. The L3 stage is encased in a sheath, which protects the larva from external stresses such as desiccation and chemicals. This makes it more difficult to kill this part of the lifecycle with chemotherapeutic agents. The tests will determine which compounds can kill this lifestage, therefore defining which compounds can penetrate through the sheath and subsequently kill the larva.
The L3 stage of T. vitrinus were collected and stored in water at 4° C. until needed. Each compound was suspended in 100% dimethyl sulphoxide (DMSO) to a final concentration of 100 mM.
Around fifty L3 larvae were added, in 95 μl of water, to the wells of a 96-well microtitre plate. The plate was incubated overnight RT. Plates were viewed under a binocular microscope and the proportion of dead L3 larvae in the controls and each treatment were scored. Concentrations above 5 mM were not tested as DMSO alone kills larvae when the proportion exceeds 5% of the total volume. Many of the compounds are predicted to have limited solubility in aqueous solution, thus requiring the presence of organic solvent. The appropriate controls included wells with and without various concentrations of DMSO alone.
Three compounds ((4), (10) and (20)) could also kill 100% of larvae exposed at 0.5 mM.

The subject of data set [2] is H. contortus L3 larvae. The data set can be described thus: Testing compounds on H. contortus L3 larvae (96-well microplate larval kill assay). It counts as cell-based, Haemonchus contortus. Conditions: secondary screening, sequential ten-fold dilutions of 5 mM down to 0.5. The protocol: The L3 stage of H. contortus was collected from the faeces of experimentally infected sheep and stored in water at room temperature until needed. A stock solution of each compound was prepared by suspending the compound in 100% dimethyl sulphoxide (DMSO) to a final concentration of 100 mM.
For this set of experiments, Trichostrongylus vitrinus (T. vitrinus) L3 larvae were used as positive controls by testing with the compounds identified in previous experiments as being able to kill all larvae. Approximately 50 L3 larvae of each species were added, in 95 μl of water, to the wells of a 96-well microtitre plate. All compounds were tested initially at a concentration of 5 mM by adding 5 μl of inhibitor in 100% DMSO.
The plates were incubated overnight at room temperature (RT). Plates were viewed under a binocular microscope and the compounds showing 100% kill of H. contortus larvae were determined. Concentrations above 5 mM were not tested as DMSO alone kills larvae when the proportion exceeds 5% of the total volume. Many of the compounds are predicted to have limited solubility in aqueous solution, thus requiring the presence of organic solvent. Additional controls included wells with and without various concentrations of DMSO alone.
Eight inhibitors, from the primary screening, appeared to kill 90-100% of H. contortus L3 larvae at a concentration of 5 mM. […]

The mark [3] stands for this setting: primary screening, 5 mM compound, 5% DMSO, overnight RT.
Setting [4] is: secondary screening, serial ten-fold dilutions, 0.5 mM.

`O=C(O)C1C(C(=O)NCC2OCCc3sccc32)[C@H]2CC[C@@H]1O2` (some centres unmarked) [Compound 81, 3,[(6,7-Dihydro-4H-thieno[3,2-c]pyran-4-yl)methylcarbamoyl]-7-oxabicyclo[2.2.1]heptane-2-carboxylic acid] yielded a melting point of 159 to 160 °C.

`CCCCN(C(=O)C1C2CCC(O2)C1C(=O)O)c1ccccc1` (centres unmarked): the melting point lay in the range of 105 to 107 °C. `C=CCC12CCC(O1)C1C(=O)NC(=O)C12` (centres unmarked) gave a melting point of 116 to 117 °C.

As to `O=C(O)C1C(C(=O)NCCN2CCOCC2)[C@H]2CC[C@@H]1O2` (some centres unmarked) [Compound 12, 3-(Ethylmorpholinecarbamoyl)-7-Oxabicyclo(2.2.1)heptane-2-carboxylic acid], in data set [1] (setting [3]), the “% of T. vitrinus L3 larvae killed” value is listed as 100%. In turn, `COc1ccc(CC23CCC(O2)C2C(=O)NC(=O)C23)cc1` (centres unmarked) yielded a melting point of 83 to 85 °C. In the case of `O=C1NC(=O)C2C1C1CCC2(c2ccccc2)O1` (centres unmarked), the melting point fell in the range of 171 to 172 °C. For the molecule `O=C1C2C(C(=O)N1c1ncccc1OCc1ccccc1)[C@H]1CC[C@@H]2O1` (some centres unmarked) [Compound 77, 3-[3-(Benzyloxy)pyridin-2-yl]-10-oxa-4-azatricyclo[5.2.1]decane-3,5-dione], the melting point lay in the range of 99 to 102 °C. Still for that read-out and setting: in the case of `CCCCCCCCCCNC(=O)C1C(C(=O)O)[C@@H]2CC[C@H]1O2` (stereo in doubt) it was 110 to 111 °C.

The molecule `CCCCCCCCNC(=O)C1C(C(=O)O)[C@@H]2CC[C@H]1O2` (stereo in doubt) showed a melting point of 131 °C.

Take `C=CCCN1C(=O)C2C(C1=O)[C@H]1CC[C@@H]2O1` (some centres unmarked): the melting point was in the range of 64 to 65 °C. With `CCCCCCCCN1C(=O)C2C3CCC(O3)C2C1=O` (centres unmarked) [Compound 6, N-octyl-7-Oxabicyclo(2.2.1)heptane-2,3-dicarboximide], the “% of T. vitrinus L3 larvae killed” value in data set [1] (setting [3]) is given as 100%. `O=C(O)C1C(C(=O)N2CCCCC2)[C@H]2CC[C@@H]1O2` (some centres unmarked) showed a melting point of 140 to 142 °C. For the molecule `CCCCN1C(=O)C2C3CCC(O3)C2C1=O` (centres unmarked) [Compound 5, N-butyl-7-Oxabicyclo(2.2.1)heptane-2,3-dicarboximide], in data set [1] (setting [3]), the “% of T. vitrinus L3 larvae killed” value was 100%. For the molecule `O=C1NC(=O)C2C1[C@@H]1CC[C@H]2O1` (stereo partly drawn) [Compound 20, exo-7-Oxabicyclo(2.2.1)heptane-2,3-dicarboximide], the “% of T. vitrinus L3 larvae killed” value in data set [1] (setting [3]) and in data set [1] (setting [4]) was 100% in each case.

Take `CCCCCCCCCCN1C(=O)C2C3CCC(O3)C2C1=O` (centres unmarked) [Compound 7, N-decyl-7-Oxabicyclo(2.2.1)heptane-2,3-dicarboximide]: in data set [1] (setting [3]), the “% of T. vitrinus L3 larvae killed” value is recorded as 100%. In turn, `CCCCCCCCCCCCC12CCC(O1)C1C(=O)NC(=O)C12` (centres unmarked) displayed a melting point of 35 to 37 °C. For `O=C1C2C(C(=O)N1CCO)[C@H]1CC[C@@H]2O1` (some centres unmarked) [Compound 15, N-Ethyl alcohol-7-Oxabicyclo(2.2.1)heptane-2,3-dicarboximide], the melting point fell in the range of 164 to 166 °C. In data set [2], the “killing of H. contortus L3 larvae across the dilution series” value is “killed the larvae at the highest and lowest concentrations used”. In turn, `O=C(O)c1ccc(NC(=O)C2C(C(=O)O)[C@@H]3CC[C@H]2O3)cc1Cl` (stereo in doubt) returned a melting point of 216 to 217 °C. Turning to `O=C(O)C1C(C(=O)NC2CCN(Cc3ccccc3)CC2)[C@H]2CC[C@@H]1O2` (stereo in doubt), the melting point lay within 124 to 125 °C. The molecule `CC(CO)C12CCC(O1)C1C(=O)NC(=O)C12` (centres unmarked) returned a melting point of 104 to 107 °C. Turning to `CCC(C)C12CCC(O1)C1C(=O)NC(=O)C12` (centres unmarked), the melting point was in the range of 44 to 46 °C. `Cn1ccc2c(CNC(=O)C3C(C(=O)O)[C@@H]4CC[C@H]3O4)cccc21` (stereo in doubt) [Compound 80, 3-[(1-Methyl-1H-indol-4-yl)methylcarbamoyl]-7-oxabicyclo[2.2.1]heptane-2-carboxylic acid]: the melting point was found to be 161 °C.

In turn, `O=C1NC(=O)C2C1C1CCC2(CCCO)O1` (centres unmarked) registered a melting point of 164 to 166 °C. Regarding `O=C(O)CCCN1C(=O)C2C(C1=O)[C@H]1CC[C@@H]2O1` (some centres unmarked) [Compound 13, N-Butanoic acid-7-Oxabicyclo(2.2.1)heptane-2,3-dicarboximide], the melting point was in the range of 162 to 164 °C. The molecule `O=C1NC(=O)C2C1C1CCC2(N2CCOCC2)O1` (centres unmarked) gave a melting point of 169 to 171 °C. On the same count and under the same terms, the result for `CCc1ccccc1NC(=O)C1C(C(=O)O)[C@@H]2CC[C@H]1O2` (stereo in doubt) reads 171 to 172 °C. Still for that read-out and setting: the result for `COC(CO)CN1C(=O)[C@@H]2[C@H](C1=O)[C@H]1CC[C@@H]2O1` (some centres unmarked) [Compound 16, N-2-Methoxypropyl-1-ol-7-Oxabicyclo(2.2.1)heptane-2,3-dicarboximide] reads 96 to 97 °C. Take `CCCN1C(=O)C2C(C1=O)[C@H]1CC[C@@H]2O1` (some centres unmarked) [Compound 4, N-propyl-7-Oxabicyclo(2.2.1)heptane-2,3-dicarboximide]: the “% of T. vitrinus L3 larvae killed” value in data set [1] (setting [3]) and in data set [1] (setting [4]) was 100% throughout.

`COc1ccc(CC23CCC(O2)C2C(=O)NC(=O)C23)cc1OC` (centres unmarked) came in with a melting point of 155 to 157 °C. Still for that read-out and setting: the result for `CN(C)CCOc1ccc(N2C(=O)C3C(C2=O)[C@H]2CC[C@@H]3O2)cc1` (some centres unmarked) reads 145 to 146 °C; that for `CCCCCCCCCCCCCCC12CCC(O1)C1C(=O)NC(=O)C12` (centres unmarked), 45 to 46 °C; that for `O=C1NC(=O)C2C1C1CCC2(C2CCCCC2)O1` (centres unmarked), 97 to 99 °C.

`C=CCNC(=O)C1C(C(=O)O)[C@@H]2CC[C@H]1O2` (stereo in doubt) came in with a melting point of 105 to 107 °C. Same read-out and setting: in the case of `O=C1NC(=O)C2C1C1CCC2(CCCCCCO)O1` (centres unmarked) it was 56 to 57 °C; in that of `O=C1NC(=O)C2C1C1CCC2(c2ccc([N+](=O)[O-])cc2)O1` (centres unmarked), 207 to 209 °C; in that of `CCCCCCCCCCCCCCCCCCC12CCC(O1)C1C(=O)NC(=O)C12` (centres unmarked), 62 to 64 °C.

Turning to `CC(C)(C)c1ccccc1NC(=O)C1C(C(=O)O)[C@@H]2CC[C@H]1O2` (some centres unmarked), the melting point is 163 to 164 °C. For the molecule `O=C(O)C(Cc1ccc(O)cc1)N1C(=O)C2C(C1=O)[C@H]1CC[C@@H]2O1` (some centres unmarked) [Compound 19], the “% of T. vitrinus L3 larvae killed” value in data set [1] (setting [3]) was determined as 100%. `O=C(O)CCCCCN1C(=O)C2C(C1=O)[C@H]1CC[C@@H]2O1` (some centres unmarked) [Compound 14, N-Hexanoic acid-7-Oxabicyclo(2.2.1)heptane-2,3-dicarboximide] returned a melting point of 110 to 112 °C. The same measure, in the same setting: in the case of `O=C(O)CCCCCCCNC(=O)C1C(C(=O)O)[C@@H]2CC[C@H]1O2` (stereo in doubt) [Compound 18, 3-(7-Carboxyheptylcarbamoyl)-7-oxabicyclo[2.2.1]heptane-2-carboxylic acid] it was 125 to 126 °C; in that of `Nc1ccccc1CC12CCC(O1)C1C(=O)NC(=O)C12` (centres unmarked), 159 to 160 °C; in that of `CN(C)CCOc1ccccc1N1C(=O)C2C(C1=O)[C@H]1CC[C@@H]2O1` (some centres unmarked) [Compound 79, 4,{2,[2-(Dimethylamino)ethoxy]phenyl}-10-oxa-4-azatricyclo[5.2.1]decane-3,5-dione], 113 to 115 °C. `CCC12CCC(O1)C1C(=O)NC(=O)C12` (centres unmarked) showed a melting point of 166 to 169 °C. The same measure, in the same setting: the result for `CC(C)(CO)C12CCC(O1)C1C(=O)NC(=O)C12` (centres unmarked) reads 134 to 136 °C.
